Measurements published in patent US20120010176A1, “UTROPHIN PROMOTER ACTIVITY UPREGULATION FOR THE TREATMENT OF MUSCULAR DYSTROPHY” (priority 2008, published 2012).
Structures can show the parent of a compound that is named as a salt. Values belong to the compound of their own block, whether it stands above or below them.

Tests used:
[1] = tested on: utrophin A mRNA; test: utrophin A mRNA upregulation in C2C12 muscle cells (TaqMan qPCR); format: cell-based; conditions: either in serum-containing or serum-free media, FIG. 4
Procedure: In a further experiment, the activity of kawain, equilin and nabumetone were evaluated in C2C12 muscle cells for upregulation of utrophin A mRNA (FIG. 3). C2C12 muscle cells were treated with optimal doses of compounds (based on previous dose-response data) for 24 hours, either in the presence of serum or in the absence of serum (following 24 hours of serum starvation). Trichostatin A and heregulin were used as positive controls for utrophin upregulation in the presence (trichostatin A) or absence (heregulin) of serum. Utrophin A mRNA was measured using a TaqMan qPCR assay and normalised to 18S rRNA. Data are presented as fold-changes in utrophin A mRNA compared to DMS O-only controls (compounds) or media-only controls (trichostatin A and heregulin).
Additional experiments were performed in C2C12 cells. […] C2C12 cells were treated with Prestwick compounds A, J, L and S plus TSA and heregulin (HRG) as positive controls.

[2] = tested on: utrophin promoter; test: utrophin promoter-luciferase reporter screen, 384-well format; format: cell-based; conditions: C2C12utrn cells; for maximal fold induction: 24 h, read-out: Max. fold change
Procedure: (§1) The ability of test compounds to upregulate activity of the utrophin promoter was determined using the muscle cell line C2C12utrn, which contains the utrophin gene promoter linked to the protein-encoding sequence for luciferase. Using these cells, a chemical library was screened for compounds that activate the utrophin promoter. Light production was the readout.
In the first screening, 384-well plates were used to grow C2C12 […] cells and expose to test compounds. Cells were exposed to test compounds at a single concentration for 24 hours, wherein 19 compounds of 1120 tested produced an increase of at least 20% of the activity of the luciferase reporter.
Subsequently, the 19 compounds were rescreened at 15 different concentrations.

[3] = tested on: utrophin promoter; test: utrophin promoter-luciferase reporter assay, 96-well format; format: cell-based; conditions: for maximal fold induction: read-out: Max. fold change; for dose-dependent activation of the utrophin promoter: range of concentrations, 96-well plate format, FIGS. 1 and 2
Procedure: as §1
In some cases compounds were tested at a range of concentrations on test cells in a 96-well plate format.

[4] = tested on: mice; test: in vivo treatment of mice: muscle weights and muscle function
Description: In vivo experiments were perfomed in mice by treating with nabumetone. […] Soleus, gastrocnemius (gastroc), tibialis anterior (TA) and quadriceps (quads) were bigger in treated mice. […] There was no difference in whole body weight between treatment groups.

[5] = 96-well format, C2C12utrn cells, luciferase readout

Compound: CC(/C=C/C(=O)NO)=C\[C@@H](C)C(=O)c1ccc(N(C)C)cc1 [TSA, Trichostatin A]
levels of endogenous utrophin A mRNA [1]: increased

Compound: C[C@]12CC[C@H]3C(=CCc4cc(O)ccc43)[C@@H]1CCC2=O [equilin, 3-hydroxy-13-methyl-9,11,12,14,15,16-hexahydro-6H-cylcopenta(a)phenanthren-17-one]
maximal fold induction ([2]; luciferase readout): 1.6 | maximal fold induction [3, 5]: 3.4 | dose-dependent activation of the utrophin promoter [3]: dose-dependent activation

Compound: COC1=CC(=O)O[C@@H](/C=C/c2ccccc2)C1 [kawain, [R-(E)]-5,6-dihydro-4-methoxy-6-(2-phenylethenyl)-2H-pyran-2-one]
Optimal dose [2]: 10 µM | Max. fold change ([2]; luciferase readout): 1.37 | Optimal dose ([3]; 96-well format, C2C12utrn cells): 20 µM | Max. fold change [3, 5]: 2.5 | dose-dependent activation of the utrophin promoter [3]: dose-dependent activation

Compound: Nc1ccc(/N=N/c2ccccc2)c(N)n1 [phenazopyridine HCl, 3-phenyldiazenylpyridine-2,6-diamine]
maximal fold induction ([2]; luciferase readout): 1.62 | maximal fold induction [3, 5]: 2.6 | dose-dependent activation of the utrophin promoter [3]: dose-dependent activation

Compound: Nc1nc2ccc(OC(F)(F)F)cc2s1 [riluzole HCl, 6-(trifluoromethoxy)benzothiazol-2-amine]
maximal fold induction ([2]; luciferase readout): 1.56 | maximal fold induction [3, 5]: 2.2 | dose-dependent activation of the utrophin promoter [3]: dose-dependent activation

Compound: c1ccc2[nH]c(-c3cscn3)nc2c1 [tiabendazole, 2-(1,3-thiazol-4-yl)-1H-benzoimidazole]
maximal fold induction ([2]; luciferase readout): 1.86 | maximal fold induction [3, 5]: 2.1 | dose-dependent activation of the utrophin promoter [3]: dose-dependent activation

Compound: heregulin
levels of endogenous utrophin A mRNA [1]: increased

Second part, led by results:

dose-dependent activation of the utrophin promoter [3]: dose-dependent activation
Compound: O=c1cc(-c2ccc(O)cc2)oc2cc(O)cc(O)c12 [apigenin, 5,7-dihydroxy-2-(4-hydroxyphenyl)-4H-1-benzopyran-4-one]
maximal fold induction ([2]; luciferase readout): 1.54 | maximal fold induction [3, 5]: 3.5

dose-dependent activation of the utrophin promoter [3]: dose-dependent activation
Compound: O=c1cc(-c2ccccc2)oc2cc(O)cc(O)c12 [chrysin, 5,7-dihydroxy-2-phenyl-4H-chromen-4-one]
maximal fold induction ([2]; luciferase readout): 1.5 | maximal fold induction [3, 5]: 3.4

dose-dependent activation of the utrophin promoter [3]: dose-dependent activation
Compound: C#CCN(C)CCCOc1ccc(Cl)cc1Cl [clorgyline HCl, N-[3-(2,4-dichlorophenoxy)propyl]-N-methylprop-2-yn-1-amine]
maximal fold induction ([2]; luciferase readout): 1.16 | maximal fold induction [3, 5]: 1.9

dose-dependent activation of the utrophin promoter [3]: dose-dependent activation
Compound: COc1ccc([C@@H]2CC(=O)c3c(O)cc(O)cc3O2)cc1O [hesperetin, (S)-2,3-dihydro-5,7-dihydroxy-2-(3-hydroxy-4-methoxyphenyl)-4H-1-benzopyran-4-one]
maximal fold induction ([2]; luciferase readout): 1.94 | maximal fold induction [3, 5]: 2.9

dose-dependent activation of the utrophin promoter [3]: dose-dependent activation
Compound: Cc1oncc1C(=O)Nc1ccc(C(F)(F)F)cc1 [leflunomide, 5-methyl-N-[4-(trifluoromethyl)phenyl]isoxazole-4-carboxamide]
maximal fold induction ([2]; luciferase readout): 1.38 | maximal fold induction [3, 5]: 2.9

dose-dependent activation of the utrophin promoter [3]: dose-dependent activation
Compound: COc1ccc2cc(CCC(C)=O)ccc2c1 [nabumetone, 4-(6-methoxy-2-naphthyl)-2-butanone]
maximal fold induction ([2]; luciferase readout): 1.56 | maximal fold induction [3, 5]: 2.5 | whole body weight between treatment groups ([4]; mice, FIG. 5): no difference | muscle weight, EDL ([4]; treated mice, FIG. 5): not significantly bigger | muscle weight, gastrocnemius (gastroc) ([4]; treated mice, FIG. 5, p<0.05): bigger | muscle weight, quadriceps (quads) ([4]; treated mice, FIG. 5, p<0.05): bigger | muscle weight, soleus ([4]; treated mice, FIG. 5, p<0.05): bigger | muscle weight, tibialis anterior (TA) ([4]; treated mice, FIG. 5, p<0.05): bigger | force generating capacity ([4]; treated muscles, FIG. 6): trend towards increased | peak specific twitch force ([4]; treated muscles, FIG. 6, p<0.05): significantly increased | force drop on eccentric contraction ([4]; treated muscles, FIG. 6, trend): decreased

dose-dependent activation of the utrophin promoter [3]: dose-dependent activation
Compound: O=C(/C=C/C=C/c1ccc2c(c1)OCO2)N1CCCCC1 [piperine, 1-[5-(1,3-benzodioxol-5-yl)-1-oxo-2,4-pentadienyl]piperidine]
maximal fold induction ([2]; luciferase readout): 1.59 | maximal fold induction [3, 5]: 2.3

dose-dependent activation of the utrophin promoter [3]: dose-dependent activation
Compound: Oc1ccc(/C=C/c2cc(O)cc(O)c2)cc1 [resveratrol, trans-3,4′,5-trihydroxystilbene]
maximal fold induction ([2]; luciferase readout): 1.62 | maximal fold induction [3, 5]: 2.2
